From patent US7101878B1 (Agouron Pharmaceuticals, Inc., priority 1998, dated 2006)

Tests used:
[1] = biological target: T1, bovine GnRH receptor (Bos taurus, UniProt P32236); test: Radioligand binding, 125I-GnRH-A, bovine pituitary membranes; details: read-out: bGnRH IC50
T1 construct: membranes were prepared from bovine pituitary; from tissue; host or cells: bovine pituitary
T1 sequence (P32236 1-328): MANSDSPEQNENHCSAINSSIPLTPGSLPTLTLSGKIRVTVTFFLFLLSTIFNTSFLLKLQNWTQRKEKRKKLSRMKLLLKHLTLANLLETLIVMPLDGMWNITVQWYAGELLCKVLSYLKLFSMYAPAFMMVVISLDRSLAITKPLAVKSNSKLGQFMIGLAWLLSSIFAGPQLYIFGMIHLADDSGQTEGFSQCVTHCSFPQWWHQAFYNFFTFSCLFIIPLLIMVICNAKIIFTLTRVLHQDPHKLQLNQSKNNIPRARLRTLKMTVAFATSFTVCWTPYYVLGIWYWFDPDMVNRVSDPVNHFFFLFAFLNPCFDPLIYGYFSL
Summary of the method: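 Bound label captured on 0.1% polyethyleneimine-treated GF/C filters, washed three times with PBS, counted. IC50 derived; identical set-up for every species.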

[2] = biological target: 5-HT2a (Homo sapiens, UniProt P28223); test: Selectivity: 5-HT2a
5-HT2a, sequence (P28223 whole entry, species assumed): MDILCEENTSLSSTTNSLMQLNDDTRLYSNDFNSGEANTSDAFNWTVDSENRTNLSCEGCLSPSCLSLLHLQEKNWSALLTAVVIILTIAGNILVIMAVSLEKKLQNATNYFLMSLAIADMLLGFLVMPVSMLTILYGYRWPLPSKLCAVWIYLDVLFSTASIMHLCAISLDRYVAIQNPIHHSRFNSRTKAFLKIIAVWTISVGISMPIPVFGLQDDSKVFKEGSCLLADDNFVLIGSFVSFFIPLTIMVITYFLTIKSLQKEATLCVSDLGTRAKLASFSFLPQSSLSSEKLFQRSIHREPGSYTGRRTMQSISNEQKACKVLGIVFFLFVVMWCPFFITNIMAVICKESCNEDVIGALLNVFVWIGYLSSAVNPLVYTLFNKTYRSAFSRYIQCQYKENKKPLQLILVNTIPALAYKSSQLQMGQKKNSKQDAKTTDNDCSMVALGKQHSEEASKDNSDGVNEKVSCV

[3] = Metabolism rate, pmol/min/mg at 1 μM, dog; format: in vitro ADME; details: 1 μM compound
[4] = biological target: 5-HT7 (Homo sapiens, UniProt P34969); test: Selectivity: 5-HT7
5-HT7, sequence (P34969 whole entry, species assumed): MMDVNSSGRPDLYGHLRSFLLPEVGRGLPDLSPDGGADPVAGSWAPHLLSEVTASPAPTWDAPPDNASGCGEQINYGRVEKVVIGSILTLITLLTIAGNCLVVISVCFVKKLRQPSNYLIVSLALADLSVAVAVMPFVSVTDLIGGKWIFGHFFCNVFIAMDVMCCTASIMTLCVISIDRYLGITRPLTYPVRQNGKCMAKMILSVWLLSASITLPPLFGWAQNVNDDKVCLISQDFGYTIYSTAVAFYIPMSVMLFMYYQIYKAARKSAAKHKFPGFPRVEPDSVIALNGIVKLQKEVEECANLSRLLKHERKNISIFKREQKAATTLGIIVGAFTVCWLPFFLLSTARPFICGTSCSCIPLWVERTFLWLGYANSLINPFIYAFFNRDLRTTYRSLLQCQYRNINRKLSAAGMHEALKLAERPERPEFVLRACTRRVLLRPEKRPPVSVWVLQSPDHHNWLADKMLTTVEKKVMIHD

[5] = system: LH levels in castrated rats; test: Castrated male rat model, LH suppression; format: in vivo
From the text: Experimental Protocol: Male Sprague-Dawley (225-250 g) rats were castrated and allowed 10 days postoperative recovery. Ten days post castration animals were instrumented with indwelling femoral venous and arterial catheters to facilitate remote infusions and blood sampling. On the day of the experiment, animals were allowed to acclimate to the procedure room while residing in their home cage. Basal blood samples were drawn from all animals. Following basal sampling, either vehicle (10% DMSO, 10% cremophor/saline), Antide (1.0 μg) or compound 11 (10 mg/kg) was administered intravenously. Blood samples were drawn 10, 60, 90, 120, 180, 240 minutes after injections. Blood was centrifuged, serum collected and stored in −70° freezer until assayed. Serum samples were analyzed using DSL-4600 ACTIVE LH coated-tube immunoradiometric assay kit from Diagnostic Systems Laboratories, Inc.
Surgical removal of the gonads removes circulating testosterone and eliminates the negative feedback of testosterone on the hypothalamus. […] This model seems suitable for evaluating small molecule GnRH antagonists.
Male Sprague-Dawley ([…]) rats were castrated via the scrotal approach under halothane anesthesia. Animals were allowed 14 days post operative recovery prior to study. Thirteen days following castration, animals were anesthetized with halothane and instrumented with indwelling jugular vein cannula. Details of the cannulation procedure have been described previously {Harms and Ojeda, 1974)}. On study day, animals were allowed to acclimate to the procedure room while residing in their home cage. Basal blood samples were drawn from all animals. Immediately following basal sampling, vehicle or test compounds were administered by various routes. The routes of administration employed were intravenous (iv), intramuscular (im), intraperitoneal (ip), subcutaneous (sc) and oral (po). Blood samples were drawn into heparin containing tubes at multiple time points post treatment. Blood was centrifuged immediately, plasma collected and stored in −20° freezer until assayed. Plasma samples were analyzed using DSL-4600 ACTIVE LH coated-tube immunoradiometric assay kit from Diagnostic Systems Laboratories, Inc.
Formulation #1 (denoted with superscript 1): 10% DMSO, 10% Cremophor EL and 80% physiological saline.
Formulation #2 (denoted with superscript 2): 10% Cremophor EL and 90% physiological saline.

[6] = Metabolism rate, pmol/min/mg at 1 μM, rat female; format: in vitro ADME; details: 1 μM compound
[7] = Metabolism rate, pmol/min/mg at 1 μM, monkey; format: in vitro ADME; details: 1 μM compound

With `Cc1cc2c(cc1Cc1ccc(C(=O)NCc3cccc(CNc4nccc(NCC5CCCO5)n4)c3)o1)C(C)(C)CCC2(C)C` (stereo not shown) [Compound 70] as the compound, how does the IC50 [1] read?
Its IC50 is 43 nM.

With `COc1cc(OC)c(NC(=O)c2ccc(Cc3cc4c(cc3C)C(C)(C)CCC4(C)C)o2)c(OC)c1` [Compound 134] as the compound, how does the Ki [2] read?
Its Ki is 3720 nM.

And the “Dog pmol/min/mg 1 μM” value [3]?
Its value is 2159 pmol/min/mg.

And the Ki [4]?
Its Ki is > 4400 nM.

And the “% Max LH Suppression” value ([5]; 1.0 mg/kg iv)?
Its value is 24%.

And the “time of % Max LH Suppression” value ([5]; 1.0 mg/kg iv)?
Its value is 0.5 h.

And the “% Max LH Suppression” value ([5]; 5.0 mg/kg iv)?
The value was 70%.

And the “time of % Max LH Suppression” value ([5]; 5.0 mg/kg iv)?
Its value is 0.5 h.

And the “% Max LH Suppression” value ([5]; 10 mg/kg iv)?
The value was 100%.

What about the “time of % Max LH Suppression” value ([5]; 10 mg/kg iv) of the same compound?
The value was 0.5 h.

What about the “≧50% Suppression Duration” value ([5]; 10 mg/kg iv) of the same compound?
The value was 2 h.

What about the “% Max LH Suppression” value ([5]; 20 mg/kg im) of the same compound?
The value was 73%.

And the “LH in CX rats” value ([5]; 20 mg/kg im)?
Its value is “suppresses LH”.

And the “time of % Max LH Suppression” value ([5]; 20 mg/kg im)?
The value was 2 h.

And the “≧50% Suppression Duration” value ([5]; 20 mg/kg im)?
Its value is 8 h.

What about the “% Max LH Suppression” value ([5]; 20 mg/kg ip) of the same compound?
Its value is 80%.

And the “time of % Max LH Suppression” value ([5]; 20 mg/kg ip)?
Its value is 2 h.

And the “≧50% Suppression Duration” value ([5]; 20 mg/kg ip)?
The value was 4 h.

And the “% Max LH Suppression” value ([5]; 20 mg/kg po)?
Its value is 62%.

What about the “time of % Max LH Suppression” value ([5]; 20 mg/kg po) of the same compound?
The value was 4 h.

And the “≧50% Suppression Duration” value ([5]; 20 mg/kg po)?
The value was 4 h.

And the “% Max LH Suppression” value ([5]; 20 mg/kg sc)?
The value was 53%.

What about the “time of % Max LH Suppression” value ([5]; 20 mg/kg sc) of the same compound?
Its value is 8 h.

And the “≧50% Suppression Duration” value ([5]; 20 mg/kg sc)?
The value was 8 h.

And the “% Max LH Suppression” value ([5]; 100 mg/kg im)?
The value was 98%.

And the “time of % Max LH Suppression” value ([5]; 100 mg/kg im)?
The value was 2 to 24 h.

And the “≧50% Suppression Duration” value ([5]; 100 mg/kg im)?
Its value is 24 h.

And the “% Max LH Suppression” value ([5]; 100 mg/kg ip)?
The value was 98%.

And the “time of % Max LH Suppression” value ([5]; 100 mg/kg ip)?
Its value is 4 h.

What about the “≧50% Suppression Duration” value ([5]; 100 mg/kg ip) of the same compound?
The value was 8 h.

What about the “% Max LH Suppression” value ([5]; 100 mg/kg po) of the same compound?
Its value is 84%.

What about the “time of % Max LH Suppression” value ([5]; 100 mg/kg po) of the same compound?
Its value is 4 h.

What about the “≧50% Suppression Duration” value ([5]; 100 mg/kg po) of the same compound?
The value was 8 h.

What about the “% Max LH Suppression” value ([5]; 100 mg/kg sc) of the same compound?
Its value is 80%.

What about the “time of % Max LH Suppression” value ([5]; 100 mg/kg sc) of the same compound?
Its value is 6 h.

And the “≧50% Suppression Duration” value ([5]; 100 mg/kg sc)?
The value was 8 h.

And the “LH in CX rats” value ([5]; 1.0, 5.0 & 10 mg/kg, iv)?
Its value is “dose-dependent suppression of LH”.

What about the “LH in CX rats” value ([5]; 20 or 100 mg/kg, ip) of the same compound?
Its value is “suppresses LH”.

What about the “Rat female pmol/min/mg 1 μM” value [6] of the same compound?
Its value is 94 pmol/min/mg.

What about the “Monkey pmol/min/mg 1 μM” value [7] of the same compound?
Its value is 9277 pmol/min/mg.

For `Cc1cc2c(cc1Cc1ccc(C(=O)NCc3cccc(CNc4ccnc(NC[C@@H]5CCCO5)n4)c3)o1)C(C)(C)CCC2(C)C` [Compound 136], which “Dog pmol/min/mg 1 μM” value [3] is on record?
The value was 3071 pmol/min/mg.

What about the Ki [4] of the same compound?
Its Ki is 2400 nM.

And the “% Max LH Suppression” value ([5]; 5.0 mg/kg iv)?
The value was 48%.

What about the “time of % Max LH Suppression” value ([5]; 5.0 mg/kg iv) of the same compound?
The value was 1 h.

And the “≧50% Suppression Duration” value ([5]; 5.0 mg/kg iv)?
The value was 1.0 h.

What about the “% Max LH Suppression” value ([5]; 10 mg/kg iv) of the same compound?
Its value is 74%.

What about the “time of % Max LH Suppression” value ([5]; 10 mg/kg iv) of the same compound?
Its value is 2 h.

And the “≧50% Suppression Duration” value ([5]; 10 mg/kg iv)?
The value was 6 h.

And the “% Max LH Suppression” value ([5]; 20 mg/kg iv)?
Its value is 98%.

And the “time of % Max LH Suppression” value ([5]; 20 mg/kg iv)?
The value was 4 h.

And the “≧50% Suppression Duration” value ([5]; 20 mg/kg iv)?
Its value is “≧6 hr”.

What about the “Range of Plasma Conc.” value ([5]; 20 mg/kg po) of the same compound?
The value was 0.29 µM.

What about the “Range of Plasma Conc.” value ([5]; 40 mg/kg po) of the same compound?
Its value is 0.72 µM.

And the “Rat female pmol/min/mg 1 μM” value [6]?
Its value is 271 pmol/min/mg.

And the “Monkey pmol/min/mg 1 μM” value [7]?
The value was 5959 pmol/min/mg.

For `COc1cc(OC)c(NC(=O)c2ccc(Cc3cc4c(cc3OC)C(C)(C)CCC4(C)C)o2)c(OC)c1` [Compound 169], which Ki [2] is on record?
The Ki was 2710 nM.

What about the “Dog pmol/min/mg 1 μM” value [3] of the same compound?
Its value is 2301 pmol/min/mg.

And the “Monkey pmol/min/mg 1 μM” value [7]?
Its value is 5940 pmol/min/mg.

With `COc1cc(OC)c(NC(=O)c2ccc(Cc3cc4c(cc3C)C(C)(C)CCC4(C)C)o2)c(OC)c1C#N` [Compound 177] as the compound, how does the “Dog pmol/min/mg 1 μM” value [3] read?
The value was 2456 pmol/min/mg.

And the “Monkey pmol/min/mg 1 μM” value [7]?
The value was 3120 pmol/min/mg.

With `COc1cc(OC)c(NC(=O)c2ccc(Cc3cc4c(cc3C)CCCC4(C)C)o2)c(OC)c1` [Compound 183] as the compound, how does the “% Max LH Suppression” value ([5]; 10 mg/kg im) read?
The value was 58%.

What about the “time of % Max LH Suppression” value ([5]; 10 mg/kg im) of the same compound?
The value was 2 h.

And the “% Max LH Suppression” value ([5]; 10 mg/kg iv)?
The value was 92%.

And the “time of % Max LH Suppression” value ([5]; 10 mg/kg iv)?
The value was 1 h.

And the “≧50% Suppression Duration” value ([5]; 10 mg/kg iv)?
Its value is 8 h.

What about the “% Max LH Suppression” value ([5]; 50 mg/kg po) of the same compound?
The value was 60%.

And the “time of % Max LH Suppression” value ([5]; 50 mg/kg po)?
The value was 2 h.

What about the “≧50% Suppression Duration” value ([5]; 50 mg/kg po) of the same compound?
The value was 8 h.

And the “Rat female pmol/min/mg 1 μM” value [6]?
Its value is 64 pmol/min/mg.

Which “Rat female pmol/min/mg 1 μM” value [6] does the source give for `COc1cc(OC)c(NC(=O)c2ccc(Cc3cc(C(C)(C)C)ccc3C)o2)c(OC)c1` [Compound 200] here?
Its value is 86 pmol/min/mg.
